According to US10059688B2, “Protein tyrosine kinase modulators and methods of use” (BETTA PHARMACEUTICALS CO., LTD., priority 2013, dated 2018):

Assays:
[1] = target: ALK (h) (Homo sapiens (Human), UniProt Q9UM73); experiment: Kinase assay, single dose inhibition (Millipore, 33P-ATP filter binding); assay type: biochemical; conditions: 0.1 μM test compound, 10 μM ATP; remaining activity relative to DMSO control = 100%
Experimental: (§1) Assay conditions included 10 μM ATP and 100 nM test compounds.
(§2) All reactions are initiated by the addition of the MgATP mix. After incubation for 40 minutes at room temperature, the reaction is stopped by the addition of 3% phosphoric acid solution. 10 μL of the reaction is then spotted onto a P30 filtermat and washed three times for 5 minutes in 75 mM phosphoric acid and once in methanol prior to drying and scintillation counting. This assay is performed by Millipore. The experiment is carried out in duplicate. The value for the control sample (DMSO) was set to 100%, and the values for the compound-treated samples were expressed as activity relative to the control sample.

[2] = target: EGFR (T790M) (h) (Homo sapiens (Human), UniProt P00533, T790M); experiment: as above; assay type: biochemical; conditions: 0.1 μM test compound, 10 μM ATP; remaining activity relative to DMSO control = 100%
Chain of EGFR (T790M) (h) (P00533 25-1210 T790M): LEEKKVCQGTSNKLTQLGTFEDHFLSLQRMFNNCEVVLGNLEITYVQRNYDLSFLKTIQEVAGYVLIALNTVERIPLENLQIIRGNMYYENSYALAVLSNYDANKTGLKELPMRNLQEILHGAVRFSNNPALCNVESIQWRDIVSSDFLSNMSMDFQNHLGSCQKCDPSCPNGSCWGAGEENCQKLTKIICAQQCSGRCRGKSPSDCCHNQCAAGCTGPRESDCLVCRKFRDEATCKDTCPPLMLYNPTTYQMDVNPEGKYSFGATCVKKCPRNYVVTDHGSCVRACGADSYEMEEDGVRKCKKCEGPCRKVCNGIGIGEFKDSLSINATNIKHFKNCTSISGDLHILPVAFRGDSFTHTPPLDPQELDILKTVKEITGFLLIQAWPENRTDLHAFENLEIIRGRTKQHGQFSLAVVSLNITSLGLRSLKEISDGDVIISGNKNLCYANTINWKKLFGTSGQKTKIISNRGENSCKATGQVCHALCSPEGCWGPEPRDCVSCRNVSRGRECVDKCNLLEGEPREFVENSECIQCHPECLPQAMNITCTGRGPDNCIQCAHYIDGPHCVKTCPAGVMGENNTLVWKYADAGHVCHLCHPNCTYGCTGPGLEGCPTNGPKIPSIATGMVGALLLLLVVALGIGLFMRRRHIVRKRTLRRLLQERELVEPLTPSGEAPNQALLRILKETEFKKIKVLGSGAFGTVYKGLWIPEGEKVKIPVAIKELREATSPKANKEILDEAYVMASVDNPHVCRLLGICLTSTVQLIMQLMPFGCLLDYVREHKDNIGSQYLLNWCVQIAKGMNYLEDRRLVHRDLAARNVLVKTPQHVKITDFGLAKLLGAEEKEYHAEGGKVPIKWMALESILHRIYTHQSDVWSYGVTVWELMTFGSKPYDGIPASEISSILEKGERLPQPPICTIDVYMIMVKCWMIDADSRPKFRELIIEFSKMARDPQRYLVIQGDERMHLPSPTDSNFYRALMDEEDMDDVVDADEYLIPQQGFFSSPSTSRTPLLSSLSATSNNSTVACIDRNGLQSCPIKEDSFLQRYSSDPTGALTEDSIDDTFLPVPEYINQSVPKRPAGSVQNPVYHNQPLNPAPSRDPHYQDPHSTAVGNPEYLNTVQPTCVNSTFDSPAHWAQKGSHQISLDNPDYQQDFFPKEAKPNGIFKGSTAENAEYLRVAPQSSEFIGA
Experimental: as §1, §2

[3] = target: EGFR (ErbB1) T790M (Homo sapiens (Human), UniProt P00533, T790M); experiment: Kinase assay (IC50), fluorescence peptide assay; assay type: biochemical; conditions: 10 pt curve, 1 μM top concentration, Km ATP
Chain of EGFR (ErbB1) T790M (P00533 25-1210 T790M): as above
Experimental: (§3) 2.5 μL—4× Test Compound or 100 nL 100× plus 2.4 μL kinase buffer;
5 μL—2× Peptide/Kinase Mixture;
5 μL—Development Reagent Solution;
(§4) 60-minute Development Reaction incubation at room temperature;
(§5) Read on fluorescence plate reader and analyze the data.

[4] = target: ALK (Homo sapiens (Human), UniProt Q9UM73); experiment: Kinase assay (IC50), fluorescence peptide assay; assay type: biochemical; conditions: 10 pt curve, 1 μM top concentration, Km ATP
Experimental: as §3
5 μL—2× Peptide/Kinase Mixture;
5 μL—Development Reagent Solution;
as §4, §5

[5] = target: EGFR (ErbB1) T790M L858R (Homo sapiens (Human), UniProt P00533, L858R/T790M); conditions: read-out: IC50 EGFR (ErbB1) T790M L858R; 10 pt curve, 1 μM top concentration, Km ATP
Chain of EGFR (ErbB1) T790M L858R (P00533 25-1210 T790M/L858R): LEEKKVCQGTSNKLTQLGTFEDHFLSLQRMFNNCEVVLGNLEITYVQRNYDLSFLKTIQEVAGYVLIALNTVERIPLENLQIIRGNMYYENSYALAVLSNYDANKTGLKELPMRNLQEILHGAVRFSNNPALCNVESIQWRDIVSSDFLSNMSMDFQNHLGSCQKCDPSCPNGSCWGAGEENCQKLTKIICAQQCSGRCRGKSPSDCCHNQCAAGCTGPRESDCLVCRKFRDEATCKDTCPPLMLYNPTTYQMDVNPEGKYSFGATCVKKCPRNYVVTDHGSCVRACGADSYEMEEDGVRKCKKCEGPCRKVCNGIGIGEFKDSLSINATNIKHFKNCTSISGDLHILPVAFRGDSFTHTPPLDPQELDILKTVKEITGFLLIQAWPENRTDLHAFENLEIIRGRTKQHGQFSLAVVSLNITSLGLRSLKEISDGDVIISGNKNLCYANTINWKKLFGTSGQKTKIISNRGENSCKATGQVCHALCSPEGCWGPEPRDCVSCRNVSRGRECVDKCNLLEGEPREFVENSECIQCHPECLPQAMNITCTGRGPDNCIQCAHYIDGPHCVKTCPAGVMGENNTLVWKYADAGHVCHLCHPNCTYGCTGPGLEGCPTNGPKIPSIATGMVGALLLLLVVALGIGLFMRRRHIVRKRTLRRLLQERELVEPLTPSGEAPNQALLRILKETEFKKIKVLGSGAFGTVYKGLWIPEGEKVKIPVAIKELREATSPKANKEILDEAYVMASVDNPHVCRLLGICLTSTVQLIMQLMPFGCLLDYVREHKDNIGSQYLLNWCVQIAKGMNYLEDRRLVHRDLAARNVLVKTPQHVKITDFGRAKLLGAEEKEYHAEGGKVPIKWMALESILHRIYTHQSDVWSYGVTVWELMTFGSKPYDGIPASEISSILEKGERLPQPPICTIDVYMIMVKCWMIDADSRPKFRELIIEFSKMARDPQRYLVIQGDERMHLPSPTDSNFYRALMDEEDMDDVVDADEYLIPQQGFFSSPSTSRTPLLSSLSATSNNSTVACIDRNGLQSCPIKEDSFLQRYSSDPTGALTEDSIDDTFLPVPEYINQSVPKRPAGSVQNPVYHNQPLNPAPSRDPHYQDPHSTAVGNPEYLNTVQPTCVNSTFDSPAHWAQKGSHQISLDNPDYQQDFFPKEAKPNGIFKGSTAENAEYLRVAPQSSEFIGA
Experimental: as §3
5 μL—2× Peptide/Kinase Mixture;
5 μL—Development Reagent Solution;
as §4, §5

[6] = target: EGFR (ErbB1) (Homo sapiens (Human), UniProt P00533); experiment: Kinase assay (IC50), fluorescence peptide assay; assay type: biochemical; conditions: EGFR WT; 10 pt curve, 10 μM top concentration, Km ATP
Experimental: as §3
5 μL—2× Peptide/Kinase Mixture;
5 μL—Development Reagent Solution;
as §4, §5

[7] = tested on: HCC827 (EGFR Del) NSCLC cells; experiment: Cell proliferation assay (MTS cell viability); assay type: cell-based; conditions: Homo sapiens; for IC50: 72 h, HCC827 cells, 3 days of exposure, MTS; for GI50: HCC827, one set of studies, read-out: GI50, proliferation of HCC827 cells expressing EGFR Del
Experimental: (§6) Effects of test compounds on in vitro proliferation were measured by MTS cell viability assay.
(§7) Prepare test compounds in each well with a final medium volume of 200 μl;
Incubate for 3 days of exposure;
(§8) Prepare reagents following the instructions in the Cell Proliferation Assay kit (Promega);
(§9) Change to serum-free medium with a final volume of 100 l/well. Prepare a set of wells with medium only for background subtraction;
(§10) Add 20 μl MTS solution containing PMS to each well (final concentration of MTS will be 0.33 mg/ml);
(§11) Incubate 1 to 4 hours at 37° C. in a humidified, 5% CO2 atmosphere.
(§12) Record absorbance at 490 nm using VICTOR™ X5 plate reader (PerkinElmer).
(§13) All experimental points were set up in three wells and all experiments were repeated at least three times.

[8] = target: EGFR (T790M, L858R) (h) (Homo sapiens (Human), UniProt P00533, L858R/T790M); experiment: Kinase assay, single dose inhibition (Millipore, 33P-ATP filter binding); assay type: biochemical; conditions: 0.1 μM test compound, 10 μM ATP; remaining activity relative to DMSO control = 100%
Chain of EGFR (T790M, L858R) (h) (P00533 25-1210 T790M/L858R): as above

[9] = tested on: activated and resistant T790M forms of EGFR; EGFR WT; experiment: In vitro cellular assays, statements across cell lines; assay type: cell-based; conditions: result in words
Experimental: as §6

[10] = tested on: A549 (EGFR WT) NSCLC cells; experiment: Cell proliferation assay (MTS cell viability); assay type: cell-based; conditions: Homo sapiens; for IC50: 72 h, A549 cells, 3 days of exposure, MTS; for GI50: A549
Experimental: as §6
A549 cells were maintained in Ham's F12K medium (Gibco) supplemented with 10% FBS, 100 units/mL penicillin, 100 units/mL streptomycin, and 2 mM glutamine.
as §7
Incubate for 3 days of exposure;
as §8, §9, §10, §11, §12, §13

[11] = tested on: A431 (EGFR WT) cells; experiment: Cell proliferation assay (MTS cell viability); assay type: cell-based; conditions: Homo sapiens, A-431, 72 h, 3 days of exposure
Experimental: as §6
A431 cells were maintained in DMEM (Gibco) supplemented with 10% FBS, 100 units/mL penicillin, 100 units/mL streptomycin, and 2 mM glutamine.
as §7
Incubate for 3 days of exposure;
as §8, §9, §10, §11, §12, §13

[12] = target: EGFR (h) (Homo sapiens (Human), UniProt P00533); experiment: Kinase assay, single dose inhibition (Millipore, 33P-ATP filter binding); assay type: biochemical; conditions: 0.1 μM test compound, 10 μM ATP; remaining activity relative to DMSO control = 100%
Experimental: as §1, §2

[13] = target: EGFR (ErbB1) L858R (Homo sapiens (Human), UniProt P00533, L858R); experiment: Kinase assay (IC50), fluorescence peptide assay; conditions: read-out: IC50 EGFR (ErbB1) L858R; 10 pt curve, 1 μM top concentration, Km ATP
[14] = target: EGFR (L858R) (h) (Homo sapiens (Human), UniProt P00533, L858R); experiment: Kinase assay, single dose inhibition (Millipore, 33P-ATP filter binding); assay type: biochemical; conditions: 0.1 μM test compound, 10 μM ATP; remaining activity relative to DMSO control = 100%
[15] = tested on: H1975 (EGFR L858R/T790M) NSCLC cells; experiment: Cell proliferation assay (MTS cell viability); assay type: cell-based; conditions: Homo sapiens; for IC50: NCI-H1975, 72 h, H1975 cells, 3 days of exposure, MTS; for GI50: NCI-H1975, one set of studies, read-out: GI50, proliferation of H1975 cells expressing EGFR-L858R/T790M
[16] = Phase I trial; cited from earlier work
[17] = tested on: Ba/F3 cells harboring EGFR T790M in conjunction with different exon 19 deletion mutations; conditions: read-out: IC50 required to inhibit the growth of Ba/F3 cells harboring EGFR T790M; cited from earlier work
[18] = tested on: patients with EGFR mutations; conditions: six prospective trials; cited from earlier work
[19] = tested on: lung cancer patients; conditions: all lung cancer patients, not selected for EGFR mutation; cited from earlier work

Structure (SMILES) | Activity (control) % ALK (h) [1] [%] | Activity (control) % EGFR (T790M) (h) [2] [%] | IC50 [3] [nM] | IC50 [4] [nM] | IC50 [5] [nM] | IC50 [6] [nM] | IC50 [7] [nM] | GI50 [7] [nM] | Activity (control) % EGFR (T790M, L858R) (h) [8] [%] | activity against both activated and resistant T790M forms of EGFR in vitro cellular assays [9] | IC50 [10] [nM] | GI50 [10] [nM] | IC50 [11] [nM] | Activity (control) % EGFR (h) [12] [%] | IC50 [13] [nM] | Activity (control) % EGFR (L858R) (h) [14] [%] | IC50 [15] [nM] | GI50 [15] [nM] | other results
C=CC(=O)Nc1ccc(OC)c(Nc2ncc(Cl)c(Nc3ccccc3C(=O)C(=O)N(C)C)n2)c1 [Example 67, N-(3-(5-chloro-4-(2-(2-(dimethylamino)-2-oxoactyl)phenylamino)pyrimidin-2-ylamino)-4-methoxyphenyl)acrylamide] | 13 | 50 | 18.9 | 17.3 | 15.4 | 273 | 20 | 20 | 9 | potent activity | 1580 | > 1500 | 110 | 105 | 500 | 85 | 20 | 20 | 
COc1cc(Nc2ncc(Cl)c(Nc3ccccc3C(=O)C(=O)N(C)C)n2)ccc1N1CCC(N(C)C)CC1 [Example 118, 2-(2-(5-chloro-2-(4-(4-(dimethylamino)piperidin-1-yl)-3-methoxyphenylamino)pyrimidin-4-ylamino)phenyl)-N,N-dimethyl-2-oxoacetamide] | 3 | 18 | 4.92 | 10.8 | 5.13 | 77.6 | 20 | 20 | 2 | potent activity | 1890 | > 1500 | 10 | 82 | 158 | 29 | 10 | 10 | 
CCOc1cc2ncc(C#N)c(Nc3ccc(OCc4ccccn4)c(Cl)c3)c2cc1NC(=O)/C=C/CN(C)C [HKI-272] |  |  |  |  |  |  |  |  |  |  |  |  |  |  |  |  |  |  | Cmax [16]: ~200 nM; IC50 [17]: 200 to 800 nM
C#Cc1cccc(Nc2ncnc3cc(OCCOC)c(OCCOC)cc23)c1 [erlotinib] |  |  |  |  |  |  |  |  |  |  |  |  |  |  |  |  |  |  | radiographic response rates [18]: 60-82%; likelihood of tumor shrinkage (response rate) [19]: 8-10%; median time to tumor progression [19]: approximately 2 months
